For one molecule, Emax results are on record in article PMC5063977 (The Journal of Biological Chemistry, 2016).

For the test, the target named is T1, RAMP2-CLR (AM1 receptor) (Homo sapiens, UniProt O60895+Q16602).
T1 construct: FLAG; expressed in transfected cells; host or cells: HEK-293 or HEK-293S cells, transient transfection, 1:1 RAMP:CLR
Kind of test: (Ca^2+)i mobilization, HEK-293S cells, RAMP2 + CLR. It counts as cell-based. The following applies: HEK293S, percentage of maximal (Ca^2+)i release with 10 μM ionomycin, mean ± S.E., n = 5. On the procedure: HEK-293 cells were transfected with FuGENE 6 (Roche Applied Science) in accordance with the manufacturer's instructions using a 1:3 (w:v) DNA:FuGENE ratio and a 1:1 ratio of RAMP to CLR. […] The transfected cell lines were grown for 24–48 h prior to assaying.
Transfected HEK-293 cells were grown to confluence in black, clear bottomed, 96-well plates. […] Cells were then washed followed by the addition of 100 μl of Ca^2+-free Hanks' balanced salt solution. […] Recordings were obtained every 0.5 s for 120 s. Peak magnitude was calculated using five-point smoothing followed by correction against background fluorescence. The peak was used to generate concentration-response curves and normalized relative to 10 μM ionomycin.
Data analysis for cAMP assays was performed in GraphPad Prism 6.0f (San Diego, CA). […] These values were then used to quantify signaling bias as change in log (τ/Ka) relative to the natural cognate ligand for the respective receptor ([41]). […] Statistical differences were analyzed using one-way ANOVA or Student's t test as appropriate with post hoc Bonferroni's or Dunnett's multiple comparisons, and p < 0.05 was considered significant. […] To quantitate the ligand-dependent response in the yeast system, a strain lacking GPA1 (MMY11), grown in rich medium, was used as a standard ([72]). […]

T1 sequence (Q16602 23-461): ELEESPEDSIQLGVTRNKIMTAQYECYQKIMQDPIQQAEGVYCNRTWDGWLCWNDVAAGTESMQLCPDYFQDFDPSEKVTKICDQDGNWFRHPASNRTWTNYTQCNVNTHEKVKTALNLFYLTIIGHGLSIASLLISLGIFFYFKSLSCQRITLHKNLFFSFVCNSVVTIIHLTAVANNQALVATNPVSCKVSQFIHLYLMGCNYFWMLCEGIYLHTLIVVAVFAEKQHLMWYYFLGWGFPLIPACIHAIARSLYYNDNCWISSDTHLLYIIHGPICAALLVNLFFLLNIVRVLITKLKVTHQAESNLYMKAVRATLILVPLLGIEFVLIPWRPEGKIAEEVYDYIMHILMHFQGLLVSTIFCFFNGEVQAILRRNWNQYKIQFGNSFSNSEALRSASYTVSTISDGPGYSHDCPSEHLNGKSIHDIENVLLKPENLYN
T1 sequence (O60895 43-175): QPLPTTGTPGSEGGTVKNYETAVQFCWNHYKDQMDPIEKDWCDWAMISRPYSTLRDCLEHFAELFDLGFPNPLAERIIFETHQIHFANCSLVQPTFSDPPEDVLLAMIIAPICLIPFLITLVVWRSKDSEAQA

In general, Emax refers to the maximal effect, on the per cent scale that the assay sets. In the case of `CSCC[C@H](NC(=O)[C@H](CC(C)C)NC(=O)[C@H](CCC(N)=O)NC(=O)[C@H](Cc1c[nH]c2ccccc12)NC(=O)[C@H](CC(C)C)NC(=O)[C@H](CCCNC(=N)N)NC(=O)[C@H](Cc1c[nH]cn1)NC(=O)[C@H](CO)NC(=O)[C@H](CC(C)C)NC(=O)[C@H](CC(N)=O)NC(=O)[C@H](CCC(N)=O)NC(=O)[C@@H](NC(=O)[C@H](CCC(N)=O)NC(=O)[C@@H]1CSSC[C@H](NC(=O)CNC(=O)[C@@H](NC(=O)[C@H](CCCNC(=N)N)NC(=O)[C@H](CC(C)C)NC(=O)[C@H](CC(C)C)NC(=O)[C@H](CCC(N)=O)NC(=O)[C@H](C)NC(=O)[C@H](CCC(N)=O)NC(=O)[C@@H](N)[C@@H](C)O)C(C)C)C(=O)N[C@@H](C(C)C)C(=O)N[C@@H](CC(C)C)C(=O)NCC(=O)N[C@@H]([C@@H](C)O)C(=O)N1)C(C)C)C(=O)NCC(=O)N1CCC[C@H]1C(=O)N[C@@H](C)C(=O)NCC(=O)N[C@@H](CCCNC(=N)N)C(=O)N[C@@H](CCC(N)=O)C(=O)N[C@@H](CC(=O)O)C(=O)N[C@@H](CO)C(=O)N[C@@H](C)C(=O)N1CCC[C@H]1C(=O)N[C@H](C(=O)N[C@@H](CC(=O)O)C(=O)N1CCC[C@H]1C(=O)N[C@@H](CO)C(=O)N[C@@H](CO)C(=O)N1CCC[C@H]1C(=O)N[C@@H](Cc1c[nH]cn1)C(=O)N[C@@H](CO)C(=O)N[C@@H](Cc1ccc(O)cc1)C(N)=O)C(C)C` [AM2, adrenomedullin 2], the Emax was found to be 20.2 ± 2.8%.
